Source: ChEMBL document CHEMBL4033666, “Synthesis and mechanistic evaluation of novel N'-benzylidene-carbohydrazide-1H-pyrazolo[3,4-b]pyridine derivatives as non-anionic antiplatelet agents” (Eur J Med Chem, 2017)
Calls of active or inactive are those of the source. Unless noted, no cut-off for these calls is given here.

Columns and labels:
Platelet [1] = test: Antiplatelet activity in human platelet rich plasma assessed as inhibition of arachidonic acid-induced platelet aggregation at 100 uM preincubated for 2 mins followed by arachidonic acid addition by turbidimetric method relative to control; assay type: functional
Platelet [2] = test: Antiplatelet activity in human platelet rich plasma assessed as inhibition of ADP-induced platelet aggregation at 100 uM preincubated for 2 mins followed by ADP addition by turbidimetric method relative to control; assay type: cell-based
Platelet [3] = test: Antiplatelet activity in human platelet rich plasma assessed as inhibition of collagen-induced platelet aggregation at 100 uM preincubated for 2 mins followed by collagen addition by turbidimetric method relative to control; assay type: cell-based
Platelet [4] = test: Antiplatelet activity in human platelet rich plasma assessed as inhibition of epinephrine-induced platelet aggregation at 100 uM preincubated for 2 mins followed by epinephrine addition by turbidimetric method relative to control; assay type: cell-based
Platelet [5] = test: Antiplatelet activity in human platelet rich plasma assessed as inhibition of arachidonic acid-induced platelet aggregation preincubated for 2 mins followed by arachidonic acid addition by turbidimetric method relative to control; assay type: functional, cell-based
Platelet [6] = test: Antiplatelet activity in human platelet rich plasma assessed as inhibition of ADP-induced platelet aggregation preincubated for 2 mins followed by ADP addition by turbidimetric method; assay type: cell-based
Platelet [7] = test: Antiplatelet activity in human platelet rich plasma assessed as inhibition of collagen-induced platelet aggregation preincubated for 2 mins followed by collagen addition by turbidimetric method; assay type: cell-based
Platelet [8] = test: Antiplatelet activity in human platelet rich plasma assessed as inhibition of epinephrine-induced platelet aggregation preincubated for 2 mins followed by epinephrine addition by turbidimetric method; assay type: cell-based
[9] = target: T1, Prostaglandin G/H synthase 1 (Ovis aries, UniProt P05979); test: Inhibition of ovine COX-1 assessed as reduction in PGH2 production up to 100 uM using arachidonic acid as substrate preincubated for 5 mins followed by substrate and hematin addition measured after 2 mins by ELISA relative to control; conditions: sheep
T1 sequence (P05979 whole entry): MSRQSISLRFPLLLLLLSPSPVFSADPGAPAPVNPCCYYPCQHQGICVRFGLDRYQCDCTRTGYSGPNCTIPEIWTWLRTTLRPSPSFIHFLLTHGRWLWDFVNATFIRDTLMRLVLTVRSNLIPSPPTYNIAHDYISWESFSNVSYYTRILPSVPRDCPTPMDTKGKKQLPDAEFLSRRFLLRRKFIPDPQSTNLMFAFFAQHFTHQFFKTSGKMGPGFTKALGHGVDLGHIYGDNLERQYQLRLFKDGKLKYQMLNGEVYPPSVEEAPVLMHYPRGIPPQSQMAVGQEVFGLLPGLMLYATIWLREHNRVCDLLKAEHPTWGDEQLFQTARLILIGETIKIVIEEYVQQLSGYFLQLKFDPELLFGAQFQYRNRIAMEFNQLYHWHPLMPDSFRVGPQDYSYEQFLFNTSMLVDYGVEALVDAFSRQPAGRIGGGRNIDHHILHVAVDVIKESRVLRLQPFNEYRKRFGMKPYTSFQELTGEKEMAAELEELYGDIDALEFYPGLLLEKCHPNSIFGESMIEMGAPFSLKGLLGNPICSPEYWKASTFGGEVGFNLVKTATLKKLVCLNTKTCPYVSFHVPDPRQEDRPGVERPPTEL

[10] = target: T2, Prostaglandin G/H synthase 2 (Homo sapiens, UniProt P35354); test: Inhibition of recombinant human COX-2 assessed as reduction in PGH2 production up to 100 uM using arachidonic acid as substrate preincubated for 5 mins followed by substrate and hematin addition measured after 2 mins by ELISA relative to control
T2 sequence (P35354 whole entry): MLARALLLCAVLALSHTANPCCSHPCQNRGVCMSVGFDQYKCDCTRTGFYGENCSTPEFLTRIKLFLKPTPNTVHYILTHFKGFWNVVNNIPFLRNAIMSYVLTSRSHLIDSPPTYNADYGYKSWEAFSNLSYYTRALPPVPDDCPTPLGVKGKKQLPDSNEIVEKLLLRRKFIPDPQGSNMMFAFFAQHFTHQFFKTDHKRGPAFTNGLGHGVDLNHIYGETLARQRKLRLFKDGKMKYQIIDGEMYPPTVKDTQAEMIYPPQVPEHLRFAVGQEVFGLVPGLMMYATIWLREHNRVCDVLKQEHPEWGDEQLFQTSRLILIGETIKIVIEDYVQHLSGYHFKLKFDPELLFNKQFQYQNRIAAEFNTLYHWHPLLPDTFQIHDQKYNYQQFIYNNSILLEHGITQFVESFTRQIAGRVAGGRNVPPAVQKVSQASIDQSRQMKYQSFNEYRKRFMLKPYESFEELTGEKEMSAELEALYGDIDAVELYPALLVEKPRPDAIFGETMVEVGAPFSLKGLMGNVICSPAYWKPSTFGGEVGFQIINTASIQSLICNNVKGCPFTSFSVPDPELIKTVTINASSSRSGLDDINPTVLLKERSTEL

[11] = target: T3, Thromboxane-A synthase (Homo sapiens) (UniProt P24557); test: Inhibition of TXS in human platelet rich plasma assessed as decrease in TXB2 production at 100 uM using arachidonic acid after 5 mins by ELISA
T3 sequence (whole entry): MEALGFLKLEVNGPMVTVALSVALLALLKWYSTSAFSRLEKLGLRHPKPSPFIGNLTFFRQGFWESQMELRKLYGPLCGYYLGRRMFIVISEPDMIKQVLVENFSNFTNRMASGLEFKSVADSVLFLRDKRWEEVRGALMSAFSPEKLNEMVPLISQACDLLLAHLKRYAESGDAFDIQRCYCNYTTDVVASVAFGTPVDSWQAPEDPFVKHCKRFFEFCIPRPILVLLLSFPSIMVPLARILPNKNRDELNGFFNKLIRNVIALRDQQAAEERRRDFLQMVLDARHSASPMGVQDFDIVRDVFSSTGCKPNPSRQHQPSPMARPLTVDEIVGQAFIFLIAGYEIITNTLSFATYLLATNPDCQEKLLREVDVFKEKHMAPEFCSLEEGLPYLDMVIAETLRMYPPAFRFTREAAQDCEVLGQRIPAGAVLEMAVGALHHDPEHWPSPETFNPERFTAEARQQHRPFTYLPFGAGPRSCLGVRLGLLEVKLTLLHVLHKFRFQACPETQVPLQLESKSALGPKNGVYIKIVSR

Platelet [12] = test: Potency index, ratio of aspirin IC50 to test compound IC50 for inhibition of arachidonic acid-induced platelet aggregation in human platelet rich plasma; assay type: functional
[13] = Binding affinity to DOPC/DOPS large unilamellar vesicles assessed as blue shift at 100 uM by DAPI staining based fluorescence assay
Platelet [14] = test: Drug uptake in human platelet assessed as co-localization with CD31 at 100 uM by epifluorescence assay; assay type: ADME, cell-based
Platelet [15] = test: Drug uptake in human platelet assessed as co-localization with CD31 at 100 uM by confocal microscopy analysis; assay type: ADME, cell-based
[16] = Hemolytic activity against human erythrocytes after 3 hrs relative to control; assay type: ADME, cell-based, Erythrocyte; conditions: read-out: Activity
Cytochrome P450 3A4 = Cytochrome P450 3A4 (Homo sapiens, UniProt P08684); test: Inhibition of recombinant human CYP3A4 expressed in baculosomes using BOMR as substrate preincubated for 10 mins followed by substrate/NADP+ addition measured for 1 hr; assay type: ADME; conditions: for inhibition (INH): human, recombinant enzyme, 1 h
Platelet [17] = test: Antiplatelet activity in human platelet rich plasma assessed as inhibition of […]-induced platelet aggregation at 100 uM preincubated for 2 mins followed by […] addition by turbidimetric method; assay type: functional, cell-based
Blood = test: Reduction of clot retraction in human whole blood after 2 hrs; assay type: ADME, tissue-based
Plasma [18] = test: Change in prothrombin time in human plasma at 100 uM incubated for 15 mins at room temperature and 2 mins at 37 degC in presence of calcium thromboplastin; assay type: ADME, cell-free
Plasma [19] = test: Change in activated partial thromboplastin time in human plasma at 100 uM incubated for 15 mins at room temperature and 2 mins at 37 degC in presence of CaCl2; assay type: ADME, cell-free
[20] = target: Prostaglandin G/H synthase 1 (Homo sapiens, UniProt P23219); test: Inhibition of COX1 in human platelet rich plasma assessed as decrease in PGE2 production at 100 uM using arachidonic acid as substrate after 5 mins by ELISA
Platelet [21] = test: Potency index, ratio of ozagrel IC50 to test compound IC50 for inhibition of arachidonic acid-induced platelet aggregation in human platelet rich plasma; assay type: functional
[22] = Selectivity ratio of IC50 for recombinant human CYP3A4 to IC50 for arachidonic acid-induced platelet aggregation in human platelet rich plasma
[23] = target: T1, Prostaglandin G/H synthase 1; test: Inhibition of ovine COX-1 assessed as reduction in PGH2 production at 100 uM using arachidonic acid as substrate preincubated for 5 mins followed by substrate and hematin addition measured after 2 mins by ELISA relative to control; conditions: sheep
[24] = target: T2, Prostaglandin G/H synthase 2; test: Inhibition of recombinant human COX-2 assessed as reduction in PGH2 production at 100 uM using arachidonic acid as substrate preincubated for 5 mins followed by substrate and hematin addition measured after 2 mins by ELISA relative to control
[25] = target: T1, Prostaglandin G/H synthase 1; test: Inhibition of ovine COX-1 assessed as reduction in PGH2 production using arachidonic acid as substrate preincubated for 5 mins followed by substrate and hematin addition measured after 2 mins by ELISA relative to control; conditions: sheep

Chain of Prostaglandin G/H synthase 1 (Homo sapiens, UniProt P23219) (P23219 whole entry): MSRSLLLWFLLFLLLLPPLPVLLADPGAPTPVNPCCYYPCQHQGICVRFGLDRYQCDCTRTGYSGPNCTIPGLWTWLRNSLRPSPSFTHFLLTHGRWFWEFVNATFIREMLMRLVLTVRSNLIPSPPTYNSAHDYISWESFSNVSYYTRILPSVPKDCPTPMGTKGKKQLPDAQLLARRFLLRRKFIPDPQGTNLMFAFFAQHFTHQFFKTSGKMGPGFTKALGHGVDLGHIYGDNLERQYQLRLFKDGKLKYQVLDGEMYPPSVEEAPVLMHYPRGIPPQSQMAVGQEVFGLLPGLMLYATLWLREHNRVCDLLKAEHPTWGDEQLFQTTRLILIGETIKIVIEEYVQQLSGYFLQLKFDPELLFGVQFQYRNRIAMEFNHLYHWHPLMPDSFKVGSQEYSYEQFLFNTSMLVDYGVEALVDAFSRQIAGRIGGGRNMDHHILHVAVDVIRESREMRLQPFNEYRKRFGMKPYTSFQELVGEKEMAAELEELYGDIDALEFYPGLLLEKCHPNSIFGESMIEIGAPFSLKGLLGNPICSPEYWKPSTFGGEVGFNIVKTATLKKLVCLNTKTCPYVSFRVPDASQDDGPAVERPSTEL
Chain of Cytochrome P450 3A4 (P08684 whole entry): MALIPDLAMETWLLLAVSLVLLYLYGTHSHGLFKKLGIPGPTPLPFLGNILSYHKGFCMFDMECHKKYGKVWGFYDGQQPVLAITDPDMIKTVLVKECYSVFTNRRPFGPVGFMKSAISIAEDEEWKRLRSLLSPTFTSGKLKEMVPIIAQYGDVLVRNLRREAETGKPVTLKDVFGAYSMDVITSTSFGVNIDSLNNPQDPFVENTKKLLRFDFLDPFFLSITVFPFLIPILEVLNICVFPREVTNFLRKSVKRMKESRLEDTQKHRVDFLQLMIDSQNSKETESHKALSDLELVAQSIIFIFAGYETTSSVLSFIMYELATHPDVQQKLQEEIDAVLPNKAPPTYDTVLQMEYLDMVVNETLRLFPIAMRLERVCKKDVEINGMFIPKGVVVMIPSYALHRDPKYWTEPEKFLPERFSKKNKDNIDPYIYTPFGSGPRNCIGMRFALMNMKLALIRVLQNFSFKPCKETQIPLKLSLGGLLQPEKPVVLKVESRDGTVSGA

SMILES | IC50 (Platelet [5]) [µM] | IC50 (Platelet [6]) [µM] | IC50 (Platelet [7]) [µM] | IC50 (Platelet [8]) [µM] | inhibition (INH) [9] | inhibition (INH) [10] | inhibition [11] | Activity [13] | Drug uptake (Platelet [14]) | Drug uptake (Platelet [15]) | inhibition (INH) [20] | inhibition at 100 µM (Platelet [1]) [%] | inhibition at 100 µM (Platelet [2]) [%] | inhibition at 100 µM (Platelet [3]) [%] | inhibition at 100 µM (Platelet [4]) [%] | Ratio IC50 (Platelet [12]) | inhibition (Platelet [17]) | Activity (Blood) | Activity (Plasma [18]) | Activity (Plasma [19]) | further results
Cc1cc(C(=O)N/N=C/c2ccc(Br)cc2)c2c(C)nn(-c3ccccc3)c2n1 | 3.67 to 10.2 | > 100 | > 100 | > 100 | Not Active | Not Active | Active | Active | Active | Active | Not Active | 94.8 | 9.4 | 17 | 11.8 | <=10 | inactive | Non-Toxic | Non-Toxic | Non-Toxic | hemolysis at 3 h [16]: 5%; IC50 (Cytochrome P450 3A4): 138 µM; Ratio IC50 [22]: 20 to 30; Ratio IC50 (Platelet [21]): <=10
Cc1ccc(/C=N/NC(=O)c2cc(C)nc3c2c(C)nn3-c2ccccc2)cc1 | 3.67 to 10.2 | > 100 | > 100 | > 100 | Not Active | Not Active | Active | Active | Active | Active | Not Active | 89.2 | 6.2 | 5.58 | 0 | <=10 | inactive | Non-Toxic | Non-Toxic | Non-Toxic | inhibition (INH) (Cytochrome P450 3A4): Dose-dependent effect; Ratio IC50 (Platelet [21]): <=10
COc1ccc2c(c1)c(CC(=O)O)c(C)n2C(=O)c1ccc(Cl)cc1 [INDOMETHACIN] | – | – | – | – | – | – | – | – | – | – | – | – | – | – | – | – | – | – | – | – | inhibition (INH) [25]: < 20%

Now from value to compound, other results behind:

IC50 (Platelet [5]) [µM] | IC50 (Platelet [6]) [µM] | IC50 (Platelet [7]) [µM] | IC50 (Platelet [8]) [µM] | inhibition (INH) [9] | inhibition (INH) [10] | inhibition [11] | Activity [13] | Drug uptake (Platelet [14]) | Drug uptake (Platelet [15]) | inhibition (INH) [20] | SMILES | inhibition at 100 µM (Platelet [1]) [%] | inhibition at 100 µM (Platelet [2]) [%] | inhibition at 100 µM (Platelet [3]) [%] | inhibition at 100 µM (Platelet [4]) [%] | Ratio IC50 (Platelet [12]) | inhibition (Platelet [17]) | Activity (Blood) | Activity (Plasma [18]) | Activity (Plasma [19]) | further results
3.67 to 10.2 | > 100 | > 100 | > 100 | Not Active | Not Active | Active | Active | Active | Active | Not Active | Cc1cc(C(=O)N/N=C/c2ccc(F)cc2)c2c(C)nn(-c3ccccc3)c2n1 | 95.4 | 13.8 | 9.19 | 3.88 | <=10 | inactive | Non-Toxic | Non-Toxic | Non-Toxic | hemolysis at 3 h [16]: 5%; inhibition (INH) (Cytochrome P450 3A4): Dose-dependent effect; Ratio IC50 (Platelet [21]): <=10
3.67 to 10.2 | > 100 | > 100 | > 100 | Not Active | Not Active | Active | Active | Active | Active | Active | Cc1cc(C(=O)N/N=C/c2ccc(Cl)cc2)c2c(C)nn(-c3ccccc3)c2n1 | 83.8 | 3.4 | 35.3 | 1.1 | <=10 | inactive | Non-Toxic | Non-Toxic | Non-Toxic | hemolysis at 3 h [16]: 10%; IC50 (Cytochrome P450 3A4): 94.6 µM; Ratio IC50 [22]: 20 to 30; Ratio IC50 (Platelet [21]): <=10
3.67 to 10.2 | > 100 | > 100 | > 100 | Not Active | Not Active | Active | Active | Active | Active | Not Active | Cc1cc(C(=O)N/N=C/c2ccc(O)cc2)c2c(C)nn(-c3ccccc3)c2n1 | 96.8 | 3.22 | 64.6 | 3.3 | <=10 | inactive | Non-Toxic | Non-Toxic | Non-Toxic | hemolysis at 3 h [16]: 0%; inhibition (INH) (Cytochrome P450 3A4): Dose-dependent effect; inhibition (INH) [23]: Active; inhibition (INH) [24]: Active; Ratio IC50 (Platelet [21]): <=10
